The test system of the assay is Streptococcus mutans (strain 6715). The assay is described as follows: Incubation Adhesion Method: inhibition of dental plaque formation. It is filed as cell-based. Conditions: for Synergistic effect: class by inhibiting rate; for formation of dental plaque: combined with α-bisabolol, conclusion in words from Table 1. On the procedure:
α-Bisabolol, menthol, eugenol, 3-octanol, methyl salicylate, carvone and cineol are used as samples to evaluate their effects on inhibiting the formation of dental plaque by Incubation Adhesion Method.
Incubation Adhesion Method
A predetermined amount (0, 4 or 8 µg/mℓ) of α-bisabolol and 125 µg/mℓ of menthol, eugenol, 3-octanol, methyl salicylate, carvone or cineol were added to a BHI (brain heart infusion) medium containing 1% of sucrose. Then, Streptococcus mutans (strain 6715) was inoculated to the medium and incubated at 37°C for 16 hours under an anaerobic condition (N₂: CO₂ :H₂ = 80:10:10). After incubation, the resulting dental plaque was washed twice with water and dispersed in the same amount of 0.5-N NaOH solution. To determine the amount of dental plaque formed, the suspension of dental plaque was examined for absorbance (turbidity) at a wavelength of 550 nm.
Inhiviting rate of dental plaque formation (%) [formula] A : Absorbance (O.D. 550nm) of the control B : Absorbance (O.D. 550nm) of the sample

The mark [1] stands for this setting: 125 µg/mℓ sample alone, content of α-bisabolol 0 µg/mℓ, BHI medium with 1% sucrose, 37°C, 16 hours, anaerobic.
The mark [2] stands for this setting: 125 µg/mℓ sample combined with α-bisabolol 4 µg/mℓ, BHI medium with 1% sucrose, 37°C, 16 hours, anaerobic.
Setting [3] is: 125 µg/mℓ sample combined with α-bisabolol 4 µg/mℓ.
Where [4] appears, read: 125 µg/mℓ sample combined with α-bisabolol 8 µg/mℓ, BHI medium with 1% sucrose, 37°C, 16 hours, anaerobic.
Where [5] appears, read: 125 µg/mℓ sample combined with α-bisabolol 8 µg/mℓ.
The mark [6] stands for this setting: α-bisabolol 4 µg/mℓ alone (line 'Control', no sample added).
Where [7] appears, read: α-bisabolol 8 µg/mℓ alone (line 'Control', no sample added).

As to `CCCCCC(O)CC` (stereo not shown) [3-Octanol, 3-octanol], the “formation of dental plaque” value is on record as “synergistically suppressed”. In addition, under setting [1], the “Amount of dental plaque formation (O.D., 550nm)” value (shortened to “Amount”) is 0.59 O.D and the “Inhibiting rate of dental plaque formation (%)” value (“Inhibiting rate … (%)” below) is listed as 4.8%. Besides, under setting [2], the “Amount” value was 0.58 O.D and the “Inhibiting rate … (%)” value was 6.5%. Besides, under setting [3], the Synergistic effect result is on record as “× (Inhibiting rate is less than 20%)”. In addition, under setting [4], the “Amount” value is reported as 0.06 O.D and the “Inhibiting rate … (%)” value came out at 90.3%. Besides, the Synergistic effect result under setting [5] is reported as “ⓞ (Inhibiting rate is not less than 80%)”.

Regarding `C=C(C)C1CC=C(C)C(=O)C1` (stereo not shown) [Carvone, carvone, reference compound], the “Amount” value stood at 0.62 O.D under setting [1], 0.60 O.D under setting [2] and 0.42 O.D under setting [4]. Moreover, the “Inhibiting rate … (%)” value under setting [1] turned out to be 0%, the “Inhibiting rate … (%)” value under setting [2] stood at 3.2% and the “Inhibiting rate … (%)” value under setting [4] turned out to be 32.3%. Besides, the Synergistic effect entry by setting is: under setting [3], “× (Inhibiting rate is less than 20%)”; under setting [5], “Δ (Inhibiting rate is not less than 20%, less than 50 %)”.

Regarding `CC12CCC(CC1)C(C)(C)O2` [Cineol, cineol, reference compound], the “Amount” value reads like this: under setting [1], 0.62 O.D; under setting [2], 0.59 O.D; under setting [4], 0.53 O.D. Also, the “Inhibiting rate … (%)” value under setting [1] was determined as 0%, the “Inhibiting rate … (%)” value under setting [2] is 4.8% and the “Inhibiting rate … (%)” value under setting [4] is 14.5%. The Synergistic effect entry under setting [3] is given as “× (Inhibiting rate is less than 20%)” and the Synergistic effect entry under setting [5] is listed as “× (Inhibiting rate is less than 20%)”.

As to `C=CCc1ccc(O)c(OC)c1` [Eugenol, eugenol], the “formation of dental plaque” value is recorded as “synergistically suppressed”. In addition, under setting [1], the “Amount” value was found to be 0.62 O.D and the “Inhibiting rate … (%)” value came out at 0%. Also, under setting [2], the “Amount” value is 0.60 O.D and the “Inhibiting rate … (%)” value is recorded as 3.2%. Besides, the Synergistic effect result under setting [3] is reported as “× (Inhibiting rate is less than 20%)”. Also, under setting [4], the “Amount” value was found to be 0.02 O.D and the “Inhibiting rate … (%)” value was 96.8%. Further, the Synergistic effect result under setting [5] is reported as “ⓞ (Inhibiting rate is not less than 80%)”.

For the compound `CC1CCC(C(C)C)C(O)C1` (stereo not shown) [Menthol, menthol], the “formation of dental plaque” value is reported as “synergistically suppressed”. For the same compound, under setting [1], the “Amount” value stood at 0.60 O.D and the “Inhibiting rate … (%)” value amounted to 3.2%. In addition, under setting [2], the “Amount” value is 0.01 O.D and the “Inhibiting rate … (%)” value turned out to be 98.4%. In addition, the Synergistic effect result under setting [3] is listed as “ⓞ (Inhibiting rate is not less than 80%)”. Under setting [4], the “Amount” value was 0.01 O.D and the “Inhibiting rate … (%)” value is given as 98.4%. For the same compound, the Synergistic effect result under setting [5] is “ⓞ (Inhibiting rate is not less than 80%)”.

As to `COC(=O)c1ccccc1O` [Methyl salicylate, methyl salicylate, reference compound], the “Amount” value reads like this: under setting [1], 0.61 O.D; under setting [2], 0.61 O.D; under setting [4], 0.39 O.D. In addition, the “Inhibiting rate … (%)” value under setting [1] is listed as 1.6%, the “Inhibiting rate … (%)” value under setting [2] was determined as 1.6% and the “Inhibiting rate … (%)” value under setting [4] is given as 37.1%. In addition, the Synergistic effect result runs as follows: under setting [3], “× (Inhibiting rate is less than 20%)”; under setting [5], “Δ (Inhibiting rate is not less than 20%, less than 50 %)”.

α-bisabolol: under setting [6], the “Amount” value turned out to be 0.61 O.D and the “Inhibiting rate … (%)” value is reported as 1.6%. Further, under setting [7], the “Amount” value is on record as 0.60 O.D and the “Inhibiting rate … (%)” value is recorded as 3.2%.

For the origin of these results see patent EP0348560A1, “Oral composition” (LION CORPORATION, priority 1988, dated 1990).
